Data on 4 compounds can be found in patent publication US4713453A, “Oxabicycloheptane derivatives” (Suntori Limited, priority 1986, dated 1987).

In brackets after ≈: the same amount, converted by molar mass. Entries after “also recorded” stand apart in the source; their conditions may differ. Where two headings read alike, the source gives them in different places.

Experiment [1] relates to rabbit platelet rich plasma. In words: Effect on in vitro platelet aggregation. It counts as cell-based, rabbit (male Japanese white). To be noted: for IC50: Oryctolagus cuniculus, Platelet. As for the experimental part:
5. Effect on in vitro platelet aggregation Arterial blood was drawn from the ear artery of male Japanese white rabbits. Platelet rich plasma (PRP) was prepared by centrifugation of 9 ml of blood mixed with 1 ml of 3.8% sodium citrate as anticoagulant. Platelet aggregation was measured optically according to Born's method. ADP (10 μM), collagen (37.5 μg/ml), platelet activating factor (PAF, 0.11 nM) and calcium ionophore A 23187 (1 μg/ml) were used as platelet aggregators. Test compounds were added 1 minute prior to the addition of aggregating agents.

The test system of experiment [2] is rabbit platelet rich plasma. Briefly: Effect on in vitro platelet aggregation. The settings on record: Oryctolagus cuniculus, aggregator AA, read-out: Anti-platelet aggregation IC50, AA. The class given is cell-based, rabbit (male Japanese white).
The test system of experiment [3] is Male ddY mice. In words: Anti-cerebroischemic effect (brain protection after ischemia by decapitation): gasping time. It counts as in vivo, mouse (male ddY). To be noted: intraperitoneal, 30 min before decapitation. As for the experimental part: 1. Anti-cerebroischemic effect (i.e., brain protection after ischemia by decapitation)
Male ddY mice weighing 22-30 g were used in groups each consisting of 6 animals. Test compounds were administered intraperitoneally to the mice which were decapitated 30 minutes after the administration. The gasping time, or the duration of time between the onset of panting after decapitation and its cessation, was measured, and this was compared with the gasping time for a control group which were given only a liquid vehicle.

Experiment [4] deals with Male ddY mice. In words: Anti-hypoxia effect (brain protection in low-oxygen state after evacuation): survival time. To be noted: intraperitoneal, 180 mmHg. It counts as in vivo, mouse (male ddY). As for the experimental part:
2. Anti-hypoxia effect (i.e., […] protection in low-oxygen state after evacuation)
Male ddY m8mice weighing 22-30 g were used in groups each consisting of 7-10 animals. The mice were placed in a desiccator (capacity: ca. 1,000 ml) which was evacuated with a vacuum pump to an internal pressure of 180 mmHg after intraperitoneal administration of test compounds. The survival time, or the duration of time between the start of evacuation and the cessation of breathing, was measured, and this was compared with the value for a vehicle group. Any survival time longer than a period of 15 minutes after application of a hypoxia load was counted as 15 minutes.

Another experiment deals with vertebral artery. In words: Effect on blood flow in the vertebral artery, blood pressure and heart rate in anesthetized dogs. The class given is in vivo, dog (mongrel). To be noted: femoral vein. As for the experimental part:
4. Effect on blood flow in the vertebral artery, blood pressure and heart rate in anesthetized dogs
Mongrel dogs of either sex, weighing 6.8-9.4 kg, were used. The animals were anesthetized with an intravenous injection, at first, of 30 mg/kg of sodium thiopental and thereafter, of a combination of urethane 400 mg/kg and α-chloralose 60 mg/kg. Under artificial ventilation (20 ml/kg/stroke, 20 strokes/min), blood flow in the vertebral artery and blood pressure were measured with the aid of an extracorporeal electromagnetic flow probe placed on the artery and a pressure transducer, respectively. Vertebral vascular resistance was recorded with an electronic divider and heart rate was measured with a heart rate counter triggered by blood pressure pulses. All of these parameters were recorded on a polygraph continuously. When these parameters became stable, test compounds were injected into the femoral vein.

Experiment [5] relates to scopolamine amnesia mouse. In words: Anti-amnesia effect (scopolamine-induced retrograde amnesia), step-through passive avoidance. It counts as in vivo, mouse (male ddY). To be noted: ip, 24 h, significant prolongation of step-through latency, intraperitoneal, scopolamine 0.5 mg/kg s.c., read-out: Minimum effective amount. As for the experimental part: 6a. Anti-amnesia effect (i.e., capability of preventing scopolamine-inducedretrograde amnesia)
Five-week old male ddY weighing 25-30 g were used in groups each consisting of 10 animals. Memory retention deficit induced by scopolamine was evaluated by two-compartment step-through passive avoidance task. […] The floor of the dark compartment was provided with a current-conducting grid.
The experimental method was as follows. A scopolamine amnesia mouse that had been given subcutaneous injection of 0.5 mg/kg of an aqueous solution of scopolamine borate 20 minutes before was placed in the light compartment and when its forefeet touched the grid floor of the dark compartment, a current of 0.6 mA was applied to give a foot shock to the mouse (acquired conation). Immediately thereafter, a selected test compound or a control (physiological saline solution) was administered intraperitoneally. Twenty-four hours later, the mouse was replaced in the light compartment and the step-through latency, or the time required for the mouse to move to the dark compartment, was measured for a period of up to 300 seconds (test conation). The minimum effective amount of the test compound that provided a significant prolongation of the step-through latency over the control was determined.

Experiment [6] has as its system ECS-induced amnesia in mice. Briefly: Effect on electroconvulsive shock (ECS)-induced amnesia in mice, step-through passive avoidance. It counts as in vivo, mouse (male ddY). The settings on record: 6.25 and 12.5 mg/kg, intraperitoneal, 30 minutes before retention test. How it is done:
(§1) 6b. Effects on electroconvulsive shock (ECS)- and cycloheximide-induced amnesia in mice
(§2) Male, ddY strain mice, weighing 25 to 35 g, were used. Memory retention deficit induced by ECS and cycloheximide was evaluated by two-compartment step-through passive avoidance task using a light-dark apparatus. Passive avoidance training test began by placing the mouse into the light compartment. When the mouse moved completely into the dark compartment, a shock of 0.6 mA was applied from the grid floor. Amnesia was induced in the following two ways. In the first one, a single ECS (current 50 mA, frequency 50 Hz, pulse width 1 msec, shock duration 1 msec) was applied via a pair of electrodes attached to the head immediately after receiving the foot shock, and the mouse was returned to its home cage. Test compounds were administered intraperitoneally 30 minutes before a retention test. In the second one, cycloheximide (40 mg/kg) was administered subcutaneously 30 minutes before the training and the compounds in question were administered intraperitoneally immediately after the training. A retention test was given 24 hours later. The test procedures proceeded in a manner similar to the training one, and time to entry into the dark compartment was measured for 300 seconds.

Experiment [7] deals with cycloheximide-induced amnesia in mice. In words: Effect on cycloheximide-induced amnesia in mice, step-through passive avoidance. It counts as in vivo, mouse (male ddY). To be noted: 6.25 and 50 mg/kg, intraperitoneal, immediately after training; cycloheximide 40 mg/kg s.c. As for the experimental part: as §1, §2
In a further experiment the test system is Male ICR mice. Briefly: Anti-depression effect (forced swimming, revolutions of water wheel). The class given is in vivo, mouse (male ICR). To be noted: 50 mg/kg, intraperitoneal. The source says:
Male ICR mice weighing 25-30 g were used in groups each consisting of 6 or 7 animals. […] First, the mouse was subjected to force swimming for two days on a 15-minutes-a-day basis; starting on the third day, the mouse that had received intraperitoneal injection of a test compound one hour before was subjected to forced swimming for 3 days on a 15-minutes-a-day basis.

In the next experiment the test system is peroxylipid formation. Briefly: Anti-lipidperoxidation effect (TBA assay of malondialdehyde in rat brain homogenate). The settings on record: 10 μl (10^-4 M) test compound in 990 μl sample, 37° C., 30 minutes, pH 7.4. It counts as biochemical, rat (male Wistar). As for the experimental part:
3. Anti-lipidperoxidation effect
Male Wistar rats weighing 200-250 g were used. The brain of each rat was extracted after decapitation, homogenized with 50 mM of a phosphate buffer solution (PBS, pH 7.4) and centrifuged at 1,000 g for 15 minutes. The supernatant was stored frozen at -30° C. Before use, it was thawed under flowing water and diluted with PBS three-fold to prepare a live sample.
Two samples were prepared by adding 10 μl (10^-4 M) of a test compound in solution to 990 μl of the live sample. One sample was incubated at 37° C. for 30 minutes and reaction was quenched by addition of 0.2 ml of 35% aqueous perchloric acid. The other sample was immediately mixed with 35% perchloric acid without incubation. Each of the mixtures was centrifuged at 3,000 rpm for 15 minutes and 0.5 ml of the supernatant was subjected to TBA assay (Yagi et al., Anal. Biochem., 95, 351 (1979)) for determining the malondialdehyde (MDA) content (×10^-4 M) by subtracting the peroxylipid level for the unincubated mixture from that for the incubated mixture. The percent inhibition of peroxylipid formation was calculated by the following formula: [formula] where A is the MDA content of a treated sample and B is the value for a control sample that was not treated with any test compound.

Where [8] appears, read: aggregator ADP (10 μM), read-out: Anti-platelet aggregation IC50, ADP.
[9] abbreviates: aggregator PAF (0.11 nM), read-out: Anti-platelet aggregation IC50, PAF.
Where [10] appears, read: aggregator calcium ionophore A 23187 (1 μg/ml), read-out: Anti-platelet aggregation IC50, A 23187.
The mark [11] stands for this setting: aggregator collagen (37.5 μg/ml), read-out: Anti-platelet aggregation IC50, Collagen.

As to `CN(C)CCCN1c2ccccc2Sc2ccc(Cl)cc21` [Chlorpromazine], the IC50 (as a rule, the point on the concentration scale where inhibition reaches its midpoint) in experiment [1] (setting [8]) came out at 57 µg/mL (≈ 179 µM); in [1] (setting [9]) it was 93 µg/mL (≈ 292 µM); in experiment [1] (setting [10]) it was 125 µg/mL (≈ 392 µM); in experiment [1] (setting [11]) it was 22 µg/mL (≈ 69 µM); in [2] it was 105 µg/mL (≈ 329 µM).

For the compound `CN(C)CCCON=C1c2ccccc2OC2(c3ccccc3)CC12` (stereo not drawn) [Example 2, 3,4-Benzo-5-(3-dimethylaminopropyl)oxyimino-1-phenyl-2-oxabicyclo[4.1.0]heptane], the “prolongation of gasping time” value in the experiment with Male ddY mice [3] (12.5 mg/kg) is “significant prolongation of the gasping time”; in the experiment on Male ddY mice [3] (25 mg/kg), “significantly prolonging the gasping time”. Moreover, the “prolongation of survival time” value is “significant prolongation of the survival time” in the experiment with Male ddY mice [4] (6.25 mg/kg or smaller) and “significantly prolonging the survival time” in the experiment with Male ddY mice [4] (12.5 mg/kg). For the same compound, the blood pressure entry in the experiment on vertebral artery (3.0 mg/kg) is “small decrease”; in the experiment on vertebral artery (0.3 and 1.0 mg/kg), “almost no change”. Besides, the heart rate result was “increase” in the experiment with vertebral artery (3.0 mg/kg); “almost no change” with vertebral artery (0.3 and 1.0 mg/kg). Further, the vertebral vascular resistance result in the experiment with vertebral artery (3.0 mg/kg) is reported as “further decrease”; in the experiment on vertebral artery (0.3 and 1.0 mg/kg) it was “dose-dependent decreases”. Further, the IC50 in experiment [1] (setting [8]) amounted to 34.5 µg/mL (≈ 103 µM); in experiment [1] (setting [9]), 20 µg/mL (≈ 59.4 µM); in experiment [1] (setting [10]) it was 69 µg/mL (≈ 205 µM); in experiment [1] (setting [11]), 4.1 µg/mL (≈ 12.2 µM); in experiment [2] it was 54 µg/mL (≈ 161 µM). The “platelet aggregation” value in experiment [1] (all the aggregators used, listed as Compound No. 2) is “decreases in platelet aggregation induced by all the aggregators used; also recorded: nonspecific inhibitory actions on in vitro platelet aggregation”. For the same compound, the minimal effective dose in [5] turned out to be 3.2 mg/kg. Besides, in [6], the “prevention of ECS-induced shortening of step-through latency” value was “significantly prevented the ECS-induced shortening of step-through latency”. Moreover, the “prolongation of step-through latency shortened by cycloheximide” value in experiment [7] is recorded as “significantly prolonged the step-through latency”. For the same compound, in the experiment on Male ICR mice, the “anti-depression effect” value was “anti-depression effect”. Further, in the experiment on Male ICR mice (one hour before forced swimming), the “rotation of the water wheel relative to control group” value stood at 1.8 times.

As for `CN(C)CCCCCON=C1c2ccccc2OC2(c3ccccc3)CC12` (stereo not drawn) [Example 21, 3,4-Benzo-5-(5-dimethylaminopentyl)oxyimino-1-phenyl-2-oxabicyclo[4.1.0]heptane], the figures for the “prolongation of gasping time” value in the experiment on Male ddY mice [3] (12.5 mg/kg) and in the experiment with Male ddY mice [3] (25 mg/kg) were “significant prolongation of the gasping time” and “significantly prolonging the gasping time”, respectively. In addition, in the experiment on Male ddY mice [4] (12.5 mg/kg), the “prolongation of survival time” value is “significantly prolonging the survival time”. The “Inhibition of peroxylipid formation” value in the experiment on peroxylipid formation amounted to 62.1%. In addition, the minimal effective dose in [5] worked out at 25 mg/kg.

In the case of `NCCCCCCNS(=O)(=O)c1cccc2c(Cl)cccc12` [Example W-7], the IC50 was found to be 18 µg/mL (≈ 52.8 µM) in experiment [1] (setting [8]); 27 µg/mL (≈ 79.2 µM) in [1] (setting [9]); 19 µg/mL (≈ 55.7 µM) in [1] (setting [10]); 11 µg/mL (≈ 32.3 µM) in experiment [1] (setting [11]); 11 µg/mL (≈ 32.3 µM) in [2].
